Key:
Assay in all cases: radiometric filter-binding kinase assay, Kinase HotSpot
Conditions in all cases: compound 0.5 µM; ATP 10 µM
ACVR1 (human) = ACVR1 (human) (UniProt Q04771)
CAMK2B (human) = CAMK2B (human) (UniProt Q13554)
CDK1 CCNA2 (human) = CDK1 CCNA2 (human) (UniProt P06493+P20248)
CHEK2 (human) = CHEK2 (human) (UniProt O96017)
CLK3 (human) = CLK3 (human) (UniProt P49761)
CSF1R (human) = CSF1R (human) (UniProt P07333)
DDR2 (human) = DDR2 (human) (UniProt Q16832)
DYRK4 (human) = DYRK4 (human) (UniProt Q9NR20)
EPHA2 (human) = EPHA2 (human) (UniProt P29317)
EPHA4 (human) = EPHA4 (human) (UniProt P54764)
EPHA8 (human) = EPHA8 (human) (UniProt P29322)
FES (human) = FES (human) (UniProt P07332)
FGFR4 (human) = FGFR4 (human) (UniProt P22455)
GSK3B (human) = GSK3B (human) (UniProt P49841)
HCK (human) = HCK (human) (UniProt P08631)
HIPK1 (human) = HIPK1 (human) (UniProt Q86Z02)
INSRR (human) = INSRR (human) (UniProt P14616)
LTK (human) = LTK (human) (UniProt P29376)
[1] = system: MAP2K6 (human), P52564 [S207E/T211E]
MAP3K2 (human) = MAP3K2 (human) (UniProt Q9Y2U5)
MAP4K4 (human) = MAP4K4 (human) (UniProt O95819)
MAPK13 (human) = MAPK13 (human) (UniProt O15264)
MELK (human) = MELK (human) (UniProt Q14680)
MERTK (human) = MERTK (human) (UniProt Q12866)
MINK1 (human) = MINK1 (human) (UniProt Q8N4C8)
MKNK2 (human) = MKNK2 (human) (UniProt Q9HBH9)
MUSK (human) = MUSK (human) (UniProt O15146)
NUAK1 (human) = NUAK1 (human) (UniProt O60285)
PAK2 (human) = PAK2 (human) (UniProt Q13177)
PHKG1 (human) = PHKG1 (human) (UniProt Q16816)
PIM2 (human) = PIM2 (human) (UniProt Q9P1W9)
PLK1 (human) = PLK1 (human) (UniProt P53350)
PLK3 (human) = PLK3 (human) (UniProt Q9H4B4)
PRKCB1 (human) = PRKCB1 (human) (UniProt P05771)
PRKCI (human) = PRKCI (human) (UniProt P41743)
PRKG2 (human) = PRKG2 (human) (UniProt Q13237)
PRKX (human) = PRKX (human) (UniProt P51817)
ROS1 (human) = ROS1 (human) (UniProt P08922)
SRMS (human) = SRMS (human) (UniProt Q9H3Y6)
STK10 (human) = STK10 (human) (UniProt O94804)
TGFBR2 (human) = TGFBR2 (human) (UniProt P37173)
WNK3 (human) = WNK3 (human) (UniProt Q9BYP7)

Chain of INSRR (human) (P14616 whole entry, looked up): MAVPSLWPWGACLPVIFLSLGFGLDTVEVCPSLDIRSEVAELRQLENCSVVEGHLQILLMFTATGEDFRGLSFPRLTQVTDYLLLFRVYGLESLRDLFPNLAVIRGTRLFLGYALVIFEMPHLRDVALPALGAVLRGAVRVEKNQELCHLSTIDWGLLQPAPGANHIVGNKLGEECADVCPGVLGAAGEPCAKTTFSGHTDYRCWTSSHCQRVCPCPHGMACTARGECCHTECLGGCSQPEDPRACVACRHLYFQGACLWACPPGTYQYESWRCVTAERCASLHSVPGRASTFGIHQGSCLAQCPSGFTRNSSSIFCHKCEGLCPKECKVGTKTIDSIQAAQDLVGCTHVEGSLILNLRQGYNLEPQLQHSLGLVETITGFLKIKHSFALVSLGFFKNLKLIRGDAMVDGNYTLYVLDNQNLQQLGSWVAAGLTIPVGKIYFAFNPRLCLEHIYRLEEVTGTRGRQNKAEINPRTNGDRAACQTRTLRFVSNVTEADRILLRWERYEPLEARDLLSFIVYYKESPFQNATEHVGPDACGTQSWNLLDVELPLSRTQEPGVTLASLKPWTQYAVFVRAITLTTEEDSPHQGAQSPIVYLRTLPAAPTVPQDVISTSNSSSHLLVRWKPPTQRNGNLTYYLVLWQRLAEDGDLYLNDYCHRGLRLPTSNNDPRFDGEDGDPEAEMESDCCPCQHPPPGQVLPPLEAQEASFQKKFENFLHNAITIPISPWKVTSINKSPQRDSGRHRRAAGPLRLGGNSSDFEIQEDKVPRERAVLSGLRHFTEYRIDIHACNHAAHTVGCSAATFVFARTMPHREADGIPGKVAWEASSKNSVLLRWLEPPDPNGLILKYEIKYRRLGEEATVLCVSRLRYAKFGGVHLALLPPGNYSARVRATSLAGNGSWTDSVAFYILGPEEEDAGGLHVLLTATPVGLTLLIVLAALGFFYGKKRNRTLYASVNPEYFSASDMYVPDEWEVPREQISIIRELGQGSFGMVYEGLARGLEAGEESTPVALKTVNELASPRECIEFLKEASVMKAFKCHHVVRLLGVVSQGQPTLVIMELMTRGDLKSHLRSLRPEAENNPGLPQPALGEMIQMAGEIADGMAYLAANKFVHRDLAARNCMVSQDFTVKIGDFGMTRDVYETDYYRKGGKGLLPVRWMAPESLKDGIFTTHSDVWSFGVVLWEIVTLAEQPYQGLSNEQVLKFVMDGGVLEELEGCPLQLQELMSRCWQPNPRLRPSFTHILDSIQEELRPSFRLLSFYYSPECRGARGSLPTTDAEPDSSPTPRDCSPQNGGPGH
Chain of TGFBR2 (human) (P37173 whole entry, looked up): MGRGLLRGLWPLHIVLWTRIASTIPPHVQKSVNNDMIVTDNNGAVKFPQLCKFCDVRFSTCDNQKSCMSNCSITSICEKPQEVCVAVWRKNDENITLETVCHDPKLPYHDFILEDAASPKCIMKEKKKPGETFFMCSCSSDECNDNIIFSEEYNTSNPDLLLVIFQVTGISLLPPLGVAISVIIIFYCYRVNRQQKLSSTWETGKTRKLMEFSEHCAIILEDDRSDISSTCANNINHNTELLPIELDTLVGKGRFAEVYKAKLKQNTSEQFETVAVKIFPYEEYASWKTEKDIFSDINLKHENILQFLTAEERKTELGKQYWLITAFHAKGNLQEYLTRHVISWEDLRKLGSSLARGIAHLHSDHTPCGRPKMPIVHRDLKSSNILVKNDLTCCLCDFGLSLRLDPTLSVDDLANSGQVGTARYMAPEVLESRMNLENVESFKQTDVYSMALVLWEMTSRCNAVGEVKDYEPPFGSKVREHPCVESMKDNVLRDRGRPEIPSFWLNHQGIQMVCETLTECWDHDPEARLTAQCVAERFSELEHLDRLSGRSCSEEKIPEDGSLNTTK
Chain of EPHA2 (human) (P29317 whole entry, looked up): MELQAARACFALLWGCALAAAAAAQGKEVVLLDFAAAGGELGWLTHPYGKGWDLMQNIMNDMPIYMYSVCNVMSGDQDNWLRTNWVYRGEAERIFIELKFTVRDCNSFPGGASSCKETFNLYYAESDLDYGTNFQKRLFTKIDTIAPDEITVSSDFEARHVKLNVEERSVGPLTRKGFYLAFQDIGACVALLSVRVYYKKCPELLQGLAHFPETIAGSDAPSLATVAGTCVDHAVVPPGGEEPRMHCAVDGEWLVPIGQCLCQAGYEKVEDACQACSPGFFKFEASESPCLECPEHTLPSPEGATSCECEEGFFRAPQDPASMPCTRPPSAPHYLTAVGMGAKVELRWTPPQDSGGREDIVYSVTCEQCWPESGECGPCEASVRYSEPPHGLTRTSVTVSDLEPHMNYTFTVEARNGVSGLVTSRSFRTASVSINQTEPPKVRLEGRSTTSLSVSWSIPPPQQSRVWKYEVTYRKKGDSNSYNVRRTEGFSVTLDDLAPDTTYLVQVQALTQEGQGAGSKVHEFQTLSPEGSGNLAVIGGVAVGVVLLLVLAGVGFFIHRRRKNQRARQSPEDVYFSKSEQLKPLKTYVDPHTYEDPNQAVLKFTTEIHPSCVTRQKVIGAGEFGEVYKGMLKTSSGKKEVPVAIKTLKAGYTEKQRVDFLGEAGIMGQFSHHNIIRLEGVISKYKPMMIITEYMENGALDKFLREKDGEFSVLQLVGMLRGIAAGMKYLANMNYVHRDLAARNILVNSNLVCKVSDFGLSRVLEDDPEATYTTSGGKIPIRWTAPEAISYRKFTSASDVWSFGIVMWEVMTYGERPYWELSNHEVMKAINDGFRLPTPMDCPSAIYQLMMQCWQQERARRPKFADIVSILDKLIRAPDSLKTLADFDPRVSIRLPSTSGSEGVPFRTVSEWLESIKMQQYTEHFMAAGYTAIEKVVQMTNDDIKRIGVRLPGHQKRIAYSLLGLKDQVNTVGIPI
Chain of PRKG2 (human) (Q13237 whole entry, looked up): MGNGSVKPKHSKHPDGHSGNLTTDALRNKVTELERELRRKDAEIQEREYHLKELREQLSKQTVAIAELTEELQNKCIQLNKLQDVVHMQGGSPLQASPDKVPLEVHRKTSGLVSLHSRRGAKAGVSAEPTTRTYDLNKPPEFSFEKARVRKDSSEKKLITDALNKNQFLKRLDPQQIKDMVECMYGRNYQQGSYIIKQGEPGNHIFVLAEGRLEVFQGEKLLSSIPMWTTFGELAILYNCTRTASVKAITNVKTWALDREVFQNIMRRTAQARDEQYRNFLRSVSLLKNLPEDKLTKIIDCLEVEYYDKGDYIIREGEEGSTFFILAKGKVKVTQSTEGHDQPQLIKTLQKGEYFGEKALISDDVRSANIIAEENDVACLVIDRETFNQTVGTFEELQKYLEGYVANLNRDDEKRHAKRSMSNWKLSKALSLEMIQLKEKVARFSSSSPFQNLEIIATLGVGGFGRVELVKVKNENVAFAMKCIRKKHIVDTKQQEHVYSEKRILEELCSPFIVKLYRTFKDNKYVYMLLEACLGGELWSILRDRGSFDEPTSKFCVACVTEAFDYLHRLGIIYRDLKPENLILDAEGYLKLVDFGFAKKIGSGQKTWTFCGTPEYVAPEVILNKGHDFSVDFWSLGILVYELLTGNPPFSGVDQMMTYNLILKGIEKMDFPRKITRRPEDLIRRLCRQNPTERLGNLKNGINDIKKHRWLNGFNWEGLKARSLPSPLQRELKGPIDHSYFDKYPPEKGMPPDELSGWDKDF
Chain of HCK (human) (P08631 whole entry, looked up): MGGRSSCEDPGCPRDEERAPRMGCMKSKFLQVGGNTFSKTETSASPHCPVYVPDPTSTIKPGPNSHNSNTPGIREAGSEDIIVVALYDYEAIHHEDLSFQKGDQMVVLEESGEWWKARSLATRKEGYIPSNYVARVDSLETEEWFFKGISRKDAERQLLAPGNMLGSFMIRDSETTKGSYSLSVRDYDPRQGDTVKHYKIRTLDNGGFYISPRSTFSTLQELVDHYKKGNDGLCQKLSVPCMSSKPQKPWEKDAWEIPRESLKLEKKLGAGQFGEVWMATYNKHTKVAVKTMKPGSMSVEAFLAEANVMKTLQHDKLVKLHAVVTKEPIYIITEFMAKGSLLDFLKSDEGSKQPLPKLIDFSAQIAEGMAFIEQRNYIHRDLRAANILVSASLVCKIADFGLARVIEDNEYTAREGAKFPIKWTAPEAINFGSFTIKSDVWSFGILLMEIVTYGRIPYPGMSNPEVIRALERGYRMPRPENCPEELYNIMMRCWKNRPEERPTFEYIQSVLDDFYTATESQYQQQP
Chain of PLK1 (human) (P53350 whole entry, looked up): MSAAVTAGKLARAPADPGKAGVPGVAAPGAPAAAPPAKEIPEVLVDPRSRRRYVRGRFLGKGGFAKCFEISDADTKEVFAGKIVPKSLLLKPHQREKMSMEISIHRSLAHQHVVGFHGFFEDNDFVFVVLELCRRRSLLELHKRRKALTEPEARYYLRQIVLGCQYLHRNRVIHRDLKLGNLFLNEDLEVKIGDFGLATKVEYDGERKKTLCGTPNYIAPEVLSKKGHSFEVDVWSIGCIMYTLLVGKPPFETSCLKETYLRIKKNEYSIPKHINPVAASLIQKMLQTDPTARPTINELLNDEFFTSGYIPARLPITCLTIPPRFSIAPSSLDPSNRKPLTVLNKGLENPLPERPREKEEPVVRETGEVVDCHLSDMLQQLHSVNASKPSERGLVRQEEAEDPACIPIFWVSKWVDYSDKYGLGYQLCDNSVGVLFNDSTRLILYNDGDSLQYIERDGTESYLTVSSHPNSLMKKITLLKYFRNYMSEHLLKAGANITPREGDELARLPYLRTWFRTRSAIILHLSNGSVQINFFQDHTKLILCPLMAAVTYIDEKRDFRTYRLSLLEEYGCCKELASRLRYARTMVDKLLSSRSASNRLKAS
Chain of MAP2K6 (human), P52564 [S207E/T211E] (P52564 whole entry S207E/T211E, looked up): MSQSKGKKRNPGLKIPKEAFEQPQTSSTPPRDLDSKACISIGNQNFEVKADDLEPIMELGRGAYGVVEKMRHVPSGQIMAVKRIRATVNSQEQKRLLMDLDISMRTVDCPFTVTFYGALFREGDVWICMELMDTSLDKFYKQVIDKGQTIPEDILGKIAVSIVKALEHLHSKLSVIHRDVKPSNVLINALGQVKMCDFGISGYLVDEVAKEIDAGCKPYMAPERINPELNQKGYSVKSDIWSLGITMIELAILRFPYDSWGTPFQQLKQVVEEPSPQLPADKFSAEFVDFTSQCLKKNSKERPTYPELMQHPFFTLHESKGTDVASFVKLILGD

O=C1c2ccccc2-c2nc3nnnn3nc21
residual activity (ACVR1 (human)): 93.1%
residual activity (CAMK2B (human)): 85.1%
residual activity (CDK1 CCNA2 (human)): 48.9%
residual activity (CHEK2 (human)): 54.7%
residual activity (CLK3 (human)): 81.2%
residual activity (CSF1R (human)): 11.6%
residual activity (DDR2 (human)): 58.7%
residual activity (DYRK4 (human)): 88.5%
residual activity (EPHA2 (human)): 100%
residual activity (EPHA4 (human)): 61.1%
residual activity (EPHA8 (human)): 92.6%
residual activity (FES (human)): 87.6%
residual activity (FGFR4 (human)): 58%
residual activity (GSK3B (human)): 83.5%
residual activity (HCK (human)): 84%
residual activity (HIPK1 (human)): 99.3%
residual activity (INSRR (human)): 86.7%
residual activity (LTK (human)): 177%
residual activity [1]: 85.7%
residual activity (MAP3K2 (human)): 83%
residual activity (MAP4K4 (human)): 89%
residual activity (MAPK13 (human)): 95.6%
residual activity (MELK (human)): 55.7%
residual activity (MERTK (human)): 93.1%
residual activity (MINK1 (human)): 91.2%
residual activity (MKNK2 (human)): 78.3%
residual activity (MUSK (human)): 107%
residual activity (NUAK1 (human)): 89.8%
residual activity (PAK2 (human)): 96.2%
residual activity (PHKG1 (human)): 92.5%
residual activity (PIM2 (human)): 92.8%
residual activity (PLK1 (human)): 28.6%
residual activity (PLK3 (human)): 28.5%
residual activity (PRKCB1 (human)): 83.1%
residual activity (PRKCI (human)): 85.7%
residual activity (PRKG2 (human)): 140%
residual activity (PRKX (human)): 94.3%
residual activity (ROS1 (human)): 91.1%
residual activity (SRMS (human)): 6.33%
residual activity (STK10 (human)): 84.3%
residual activity (TGFBR2 (human)): 93.4%
residual activity (WNK3 (human)): 116%

O=C1NC(=O)c2c1c1c3ccccc3[nH]c1n1cncc21
residual activity (ACVR1 (human)): 103%
residual activity (CAMK2B (human)): 58.2%
residual activity (CDK1 CCNA2 (human)): 94.8%
residual activity (CHEK2 (human)): 21.2%
residual activity (CLK3 (human)): 48.2%
residual activity (CSF1R (human)): 64.9%
residual activity (DDR2 (human)): 96.5%
residual activity (DYRK4 (human)): 107%
residual activity (EPHA2 (human)): 102%
residual activity (EPHA4 (human)): 98.6%
residual activity (EPHA8 (human)): 97.5%
residual activity (FES (human)): 117%
residual activity (FGFR4 (human)): 78.6%
residual activity (GSK3B (human)): 30.8%
residual activity (HCK (human)): 94.6%
residual activity (HIPK1 (human)): 82.6%
residual activity (INSRR (human)): 20.7%
residual activity (LTK (human)): 80.8%
residual activity [1]: 65.7%
residual activity (MAP3K2 (human)): 97.9%
residual activity (MAP4K4 (human)): 21.2%
residual activity (MAPK13 (human)): 107%
residual activity (MELK (human)): 32.6%
residual activity (MERTK (human)): 53.9%
residual activity (MINK1 (human)): 48.2%
residual activity (MKNK2 (human)): 35%
residual activity (MUSK (human)): 54.4%
residual activity (NUAK1 (human)): 12.1%
residual activity (PAK2 (human)): 99%
residual activity (PHKG1 (human)): 70.8%
residual activity (PIM2 (human)): 34.4%
residual activity (PLK1 (human)): 50.8%
residual activity (PLK3 (human)): 48.2%
residual activity (PRKCB1 (human)): 95%
residual activity (PRKCI (human)): 82.3%
residual activity (PRKG2 (human)): 64.1%
residual activity (PRKX (human)): 87.8%
residual activity (ROS1 (human)): 77%
residual activity (SRMS (human)): 100%
residual activity (STK10 (human)): 69%
residual activity (TGFBR2 (human)): 95.8%
residual activity (WNK3 (human)): 79.1%

c1ccc2c(-c3ccncc3)c[nH]c2c1
residual activity (ACVR1 (human)): 94.7%
residual activity (CAMK2B (human)): 90.5%
residual activity (CDK1 CCNA2 (human)): 90.6%
residual activity (CHEK2 (human)): 99.3%
residual activity (CLK3 (human)): 92.6%
residual activity (CSF1R (human)): 101%
residual activity (DDR2 (human)): 92.6%
residual activity (DYRK4 (human)): 98.7%
residual activity (EPHA2 (human)): 106%
residual activity (EPHA4 (human)): 108%
residual activity (EPHA8 (human)): 101%
residual activity (FES (human)): 105%
residual activity (FGFR4 (human)): 84.6%
residual activity (GSK3B (human)): 104%
residual activity (HCK (human)): 99.5%
residual activity (HIPK1 (human)): 97.4%
residual activity (INSRR (human)): 101%
residual activity (LTK (human)): 103%
residual activity [1]: 106%
residual activity (MAP3K2 (human)): 94.9%
residual activity (MAP4K4 (human)): 54.4%
residual activity (MAPK13 (human)): 123%
residual activity (MELK (human)): 102%
residual activity (MERTK (human)): 93%
residual activity (MINK1 (human)): 84.6%
residual activity (MKNK2 (human)): 39.2%
residual activity (MUSK (human)): 78.9%
residual activity (NUAK1 (human)): 94.8%
residual activity (PAK2 (human)): 84%
residual activity (PHKG1 (human)): 90.3%
residual activity (PIM2 (human)): 105%
residual activity (PLK1 (human)): 102%
residual activity (PLK3 (human)): 95.3%
residual activity (PRKCB1 (human)): 95.1%
residual activity (PRKCI (human)): 82.4%
residual activity (PRKG2 (human)): 38.3%
residual activity (PRKX (human)): 54.3%
residual activity (ROS1 (human)): 81.6%
residual activity (SRMS (human)): 107%
residual activity (STK10 (human)): 93.7%
residual activity (TGFBR2 (human)): 119%
residual activity (WNK3 (human)): 100%
